Test results: patent publication US9890407B2, “Method for synthesizing cellulose in vitro” (University of Virginia Patent Foundation, priority 2013, dated 2018)

Columns and labels:
Rs BcsA-B complex [1] = test: Cellulose synthase sedimentation assay (3H-labeled water-insoluble cellulose, scintillation counting); type: biochemical, Rhodobacter sphaeroides; details: for divalent cation supporting cellulose synthase activity: 20 mM cation, 45 min 37° C.
Procedure: (FIG. 4A) Enzyme-coupled cellulose synthesis assays were performed as described in FIG. 3 in the absence or presence of 0.1 mg/ml E. coli BesZ. […] Inset: Radioactive sedimentation assay performed with ND-reconstituted BcsA-B synthesizing cellulose in the absence or presence of BcsZ. […] The obtained product is quantified relative to the polymer formed in the absence of any nucleoside diphosphate.
FIG. 9A-9B (also referred to as Example 1, Supplementary FIG. 3): Cation selectivity and pH optimum of cellulose synthase. (FIG. 9A) Cellulose synthesis reactions were performed in the presence of 20 mM of the indicated cations or in the absence of any additional divalent cations with and without addition of 20 mM EDTA. The activities are shown relative to the activity in the presence of magnesium. […] All activity assays were performed for 45 min at 37° C. with 1 μM PLs-reconstituted. Rs BcsA-B and by quantifying the accumulation of ^3H-labeled water insoluble cellulose as described.
Following incubation at 37° C. for 45 min, the polymerization reaction was terminated by addition of 2% SDS and the water-insoluble polymer was pelleted by centrifugation at 15,000 rpm at room temperature (RT). The obtained pellet was resuspended in 20 μL 50 mM Tris pH 7.5, 0.1 M NaCl and spotted at the origin of a descending Whatman-2MM chromatography paper, which was developed in an aqueous solution of 60% ethanol. For enzymatic degradation, the pellet was resuspended in 20 μL 50 mM sodium acetate pH 4.5 and 100 mM NaCl and was digested with 0.1 mg/ml of endo-β-1,4- or endo-β-1,3 glucanase from Aspergillus niger (TCI) or Trichoderma sp. (Megazyme), respectively. Following paper chromatography, the high molecular weight polymer retained at the origin was quantified by scintillation counting.
Following synthesis, the reactions were treated as described above.

Rs BcsA-B complex [2] = test: Enzyme-coupled (PK/LDH) cellulose synthase activity assay, UDP formation followed via NADH oxidation at 340 nm; type: biochemical, Rhodobacter sphaeroides; details: for residual activity with alternative substrate as only carbohydrate source, relative to UDP-Glc: 5 mM substrate, 0.5 μM PL-reconstituted BcsA-B
Procedure: FIG. 3A-3D (also referred to as Example 1, FIG. 3): Kinetic analysis of cellulose synthesis and stimulation by cyclic-di-GMP. (FIG. 3A) Cellulose synthesis reactions were performed in the presence of IU PK and LDH, 0.5 mM NADH and 1 mM PEP. The LDH-catalyzed oxidation of NADH to NAD^+ was monitored spectrophotometrically at 340 nm. […] Addition of 1 mM UDP to the reaction rapidly depletes NADH by circumventing cellulose synthesis. […] The data were fit to monophasic Michaelis-Menten kinetics. […] All reactions were performed at room temperature with 0.5 μM ND-reconstituted BcsA-B in a total volume of 20 μl.
Thus, the second product of the cellulose synthase reaction is UDP. […] Because PK recognizes UDP but not UMP as substrate (36), the successful coupling of cellulose synthesis with its activity implies the formation of UDP. To ensure that all BcsA-B complexes are accessible to the substrates and can contribute to the observed reaction, the complex was reconstituted into lipid nanodiscs (ND) (FIG. S4), which are edge-stabilized, planar lipid bilayer discs approximately 10 nm in diameter (37). At this size, each ND most likely contains a single BcsA-B complex (38).
(§1) Pyruvate kinase (PK)—and lactate dehydrogenase (LDH)-coupled activity assays were performed by incubating 0.5 μM cellulose synthase with 1 U PK and 1 U LDH, 0.5 mM NADH, 1 mM phosphoenolpyruvate, and 30 mM MgCl2 in 20 mM Tris pH 7.5, 100 mM NaCl, 5 mM cellobiose and 10% glycerol in a total volume of 20 μL. The cellulose synthase complex was added last to the reaction mix after a pre-incubation for 10 min at RT. The decrease in absorbance at 340 nm was measured in a SpectraMax plate reader in Corning 384 well clear flat bottom assay plates. Control reactions in the absence of cellulose synthase were performed to determine the background NADH oxidation. Data were plotted and analyzed in Origin (5) and fitted to monophasic Michaelis-Menten kinetics as described (3).

[3] = biological target: T1, Rhodobacter sphaeroides BcsA-B complex (cellulose synthase), wild type, BcsA SEQ ID NO: 1, BcsB SEQ ID NO: 3 (Cereibacter sphaeroides, UniProt Q3J125); test: Inhibition of cellulose synthesis by alternative substrates (enzyme-coupled assay, PLs-reconstituted BcsA-B); type: biochemical; details: 1 mM UDP-Glc; for inhibition of polymer synthesis by alternative UDP-sugars: increasing concentrations of UDP-sugar; for reduction of the apparent reaction rate (inhibition): 5 mM alternative UDP-sugar, 90 min, 37° C.
T1 construct: pETDuet, E. coli C43; purified, reconstituted in nanodiscs, proteoliposomes or detergent
T1 sequence (Q3J125 1-788): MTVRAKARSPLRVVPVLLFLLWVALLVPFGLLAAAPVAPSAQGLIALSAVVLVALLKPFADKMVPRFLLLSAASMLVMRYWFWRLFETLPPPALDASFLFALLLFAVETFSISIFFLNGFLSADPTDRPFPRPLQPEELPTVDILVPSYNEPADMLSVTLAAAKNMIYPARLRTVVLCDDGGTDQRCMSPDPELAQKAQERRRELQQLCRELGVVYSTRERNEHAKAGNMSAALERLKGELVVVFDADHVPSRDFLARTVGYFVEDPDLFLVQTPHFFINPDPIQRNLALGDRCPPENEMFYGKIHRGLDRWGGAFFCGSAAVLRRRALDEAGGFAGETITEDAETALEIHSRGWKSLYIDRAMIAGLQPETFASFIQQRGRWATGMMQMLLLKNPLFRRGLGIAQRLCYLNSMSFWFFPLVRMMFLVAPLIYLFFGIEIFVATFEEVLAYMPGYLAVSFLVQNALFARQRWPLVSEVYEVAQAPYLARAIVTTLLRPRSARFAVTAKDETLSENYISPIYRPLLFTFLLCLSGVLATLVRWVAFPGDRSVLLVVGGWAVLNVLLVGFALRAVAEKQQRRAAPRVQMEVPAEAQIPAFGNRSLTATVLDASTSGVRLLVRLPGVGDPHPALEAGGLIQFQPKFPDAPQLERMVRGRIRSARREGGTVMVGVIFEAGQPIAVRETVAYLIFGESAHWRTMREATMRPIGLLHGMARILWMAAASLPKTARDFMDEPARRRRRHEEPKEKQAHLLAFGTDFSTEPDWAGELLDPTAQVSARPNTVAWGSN
T1 sequence (Q3J126 21-725 partner): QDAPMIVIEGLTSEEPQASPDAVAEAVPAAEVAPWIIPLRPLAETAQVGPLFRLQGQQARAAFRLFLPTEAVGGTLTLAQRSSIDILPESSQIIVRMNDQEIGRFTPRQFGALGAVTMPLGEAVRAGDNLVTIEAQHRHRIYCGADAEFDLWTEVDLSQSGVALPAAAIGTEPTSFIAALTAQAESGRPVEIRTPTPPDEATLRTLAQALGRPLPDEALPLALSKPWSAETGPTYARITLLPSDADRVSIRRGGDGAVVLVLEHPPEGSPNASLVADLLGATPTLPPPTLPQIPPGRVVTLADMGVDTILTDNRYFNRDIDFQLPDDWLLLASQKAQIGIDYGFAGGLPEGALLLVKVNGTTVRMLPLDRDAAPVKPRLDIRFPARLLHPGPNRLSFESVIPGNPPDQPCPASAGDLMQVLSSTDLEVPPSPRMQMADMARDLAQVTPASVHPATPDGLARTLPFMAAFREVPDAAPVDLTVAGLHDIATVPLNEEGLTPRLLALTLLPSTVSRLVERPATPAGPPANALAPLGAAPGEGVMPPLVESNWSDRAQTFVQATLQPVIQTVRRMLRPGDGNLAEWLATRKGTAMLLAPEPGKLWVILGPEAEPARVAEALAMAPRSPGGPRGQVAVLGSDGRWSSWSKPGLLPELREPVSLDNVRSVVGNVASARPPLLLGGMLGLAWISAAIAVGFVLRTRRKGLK
Procedure: as §1

[4] = 0.1 mg/ml E. coli BcsZ, ND-reconstituted BcsA-B

**Q.** `[Mn+2]` [Mn2+] was tested. Which “divalent cation supporting cellulose synthase activity” value (Rs BcsA-B complex [1]; 1 μM PL-reconstituted BcsA-B) did it give?
**A.** approximately equal activity levels

**Q.** `O=c1ccn([C@@H]2O[C@H](COP(=O)(O)OP(=O)(O)O[C@H]3OC[C@H](O)[C@H](O)[C@H]3O)[C@@H](O)[C@H]2O)c(=O)[nH]1` [UDP-arabinose] was tested. Which “residual activity with alternative substrate as only carbohydrate source, relative to UDP-Glc” value (shortened to “residual activity … relative to UDP-Glc”) (Rs BcsA-B complex [2]) did it give?
**A.** about 20%

**Q.** For `CC(=O)N[C@H]1[C@@H](OP(=O)(O)OP(=O)(O)OC[C@H]2O[C@@H](n3ccc(=O)[nH]c3=O)[C@H](O)[C@@H]2O)O[C@H](CO)[C@@H](O)[C@@H]1O` [UDP-N-acetyl glucosamine], which “residual activity … relative to UDP-Glc” value (Rs BcsA-B complex [2]) is on record?
**A.** about 20%

**Q.** For `O=c1ccn([C@@H]2O[C@H](COP(=O)(O)OP(=O)(O)O)[C@@H](O)[C@H]2O)c(=O)[nH]1` [UDP, uridine diphosphate], which “product formed relative to absence of nucleoside diphosphate” value (Rs BcsA-B complex [1]; 0.7 mM UDP, 0.5 mM UDP-Glc, 1 μM PL-reconstituted BcsA-B, 60 min 37° C.) is on record?
**A.** 50%

**Q.** What about the “mode of inhibition of cellulose synthase” value (Rs BcsA-B complex [1]; 0.7 mM UDP, increasing UDP-Glc) of the same molecule?
**A.** competitive

**Q.** Which “residual activity … relative to UDP-Glc” value (Rs BcsA-B complex [2]) does the source give for `O=C(O)[C@H]1O[C@H](OP(=O)(O)OP(=O)(O)OC[C@H]2O[C@@H](n3ccc(=O)[nH]c3=O)[C@H](O)[C@@H]2O)[C@H](O)[C@@H](O)[C@@H]1O` [UDP-glucuronic acid] here?
**A.** about 20%

**Q.** For `[Mg+2]` [Mg2+], which “divalent cation supporting cellulose synthase activity” value (Rs BcsA-B complex [1]; 1 μM PL-reconstituted BcsA-B) is on record?
**A.** approximately equal activity levels

**Q.** Which “residual activity … relative to UDP-Glc” value (Rs BcsA-B complex [2]) does the source give for `O=c1ccn([C@@H]2O[C@H](COP(=O)(O)OP(=O)(O)O[C@H]3OC[C@@H](O)[C@H](O)[C@H]3O)[C@@H](O)[C@H]2O)c(=O)[nH]1` [UDP-xylose] here?
**A.** about 20%

**Q.** `CC(=O)N[C@H]1[C@@H](OP(=O)(O)OP(=O)(O)OC[C@H]2O[C@@H](n3ccc(=O)[nH]c3=O)[C@H](O)[C@@H]2O)O[C@H](CO)[C@@H](O)[C@@H]1O` [UDP-NAG, UDP-N-acetyl glucosamine] was tested. Which “inhibition of polymer synthesis by alternative UDP-sugars” value [3] did it give?
**A.** concentration-dependent inhibition

**Q.** What about the “reduction of the apparent reaction rate (inhibition)” value [3] of the same molecule?
**A.** 20%

**Q.** Which results are given for `O=c1ccn([C@@H]2O[C@H](COP(=O)(O)OP(=O)(O)O[C@H]3OC[C@@H](O)[C@H](O)[C@H]3O)[C@@H](O)[C@H]2O)c(=O)[nH]1` [UDP-Xyl, UDP-xylose]?
**A.** inhibition of polymer synthesis by alternative UDP-sugars [3]: strongest inhibitor; reduction of the apparent reaction rate (inhibition) [3]: about 60%

B1: BcsZ: E. coli periplasmic cellulase encoded in cellulose synthase operons (protein, UniProt P37651 22-368, looked up)
Endoglucanase: ACTWPAWEQFKKDYISQEGRVIDPSDARKITTSEGQSYGMFSALAANDRAAFDNILDWTQNNLAQGSLKERLPAWLWGKKENSKWEVLDSNSASDGDVWMAWSLLEAGRLWKEQRYTDIGSALLKRIAREEVVTVPGLGSMLLPGKVGFAEDNSWRFNPSYLPPTLAQYFTRFGAPWTTLRETNQRLLLETAPKGFSPDWVRYEKDKGWQLKAEKTLISSYDAIRVYMWVGMMPDSDPQKARMLNRFKPMATFTEKNGYPPEKVDVATGKAQGKGPVGFSAAMLPFLQNRDAQAVQRQRVADNFPGSDAYYNYVLTLFGQGWDQHRFRFSTKGELLPDWGQECANSH
**Q.** How did the “effect on BcsA-B's apparent reaction rate” value (Rs BcsA-B complex [2]; [4]) turn out when B1 was run?
**A.** does not change

**Q.** And the “effect on accumulation of HMW cellulose” value (Rs BcsA-B complex [1]; [4])?
**A.** prevents the accumulation of HMW cellulose
